For data set [1], the target named is EPHA1 (Homo sapiens, UniProt P21709). Nature of the data set: SelectScreen kinase profiling, EPHA1. The data set is classed as biochemical. To be noted: mean ± SD of one measurement in duplicates. How it is done:
(§1) Kinase profiling of compound 17a at a concentration of 1 µM generated with the SelectScreen® Profiling Service from Life Technologies.
(§2) Figure S2. Kinase profiling of compound 17a, Illustration as waterfall plot. 9 Kinases harboring a Cysteine isostructural to Cys797 in EGFR are highlighted
(§3) Kinase % inhibition Kinase % inhibition […]
(§4) aValues are the mean ± SD of one measurement in duplicates; bKinases harboring a Cysteine isostructural to Cys797 […]
(§5) (1 picture or pasted object on this page, not shown here)

The target in data set [2] is ITK (Homo sapiens, UniProt Q08881). The data set can be described thus: SelectScreen kinase profiling, ITK. It counts as biochemical. To be noted: mean ± SD of one measurement in duplicates. How it is done: as §1, §2, §3, §4, §5
ITK, sequence (Q08881 whole entry): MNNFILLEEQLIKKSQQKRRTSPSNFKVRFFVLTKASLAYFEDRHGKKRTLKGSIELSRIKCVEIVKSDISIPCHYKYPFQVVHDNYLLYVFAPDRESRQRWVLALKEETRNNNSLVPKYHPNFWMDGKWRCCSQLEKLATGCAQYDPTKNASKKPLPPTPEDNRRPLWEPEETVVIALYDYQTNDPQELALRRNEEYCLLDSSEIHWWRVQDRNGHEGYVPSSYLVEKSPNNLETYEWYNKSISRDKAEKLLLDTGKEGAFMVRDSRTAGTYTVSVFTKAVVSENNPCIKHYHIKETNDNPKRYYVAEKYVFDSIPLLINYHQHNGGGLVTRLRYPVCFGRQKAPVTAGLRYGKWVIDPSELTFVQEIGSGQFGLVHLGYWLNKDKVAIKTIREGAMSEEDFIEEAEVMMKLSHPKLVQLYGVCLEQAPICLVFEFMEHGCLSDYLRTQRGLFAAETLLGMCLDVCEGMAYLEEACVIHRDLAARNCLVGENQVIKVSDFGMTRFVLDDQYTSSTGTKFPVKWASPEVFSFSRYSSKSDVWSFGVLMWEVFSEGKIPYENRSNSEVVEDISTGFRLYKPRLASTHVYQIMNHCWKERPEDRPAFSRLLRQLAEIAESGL
The nature of data set [3]: PAMPA (parallel artificial membrane permeability assay). It counts as in vitro ADME. Conditions: pH 7.4, 500 µM, 16 hours. How it is done:
masses and 0.02 Da for fragment ions. FDR was adjusted to 1% on peptide spectrum match […]
Microsomal stability (phase I) assay.
Metabolic stability under oxidative conditions was measured in liver microsomes from different species by LC/MS-based measuring of depletion of compound at a concentration of 3 µM over time up to 50 minutes (HLM) or 60 minutes (MLM) at 37 °C. Based on the compound half-life t1/2, the in vitro intrinsic clearance CLint was calculated.
Plasma stability was measured by LC/MS-based determination of the percentage of remaining compounds at a concentration of 5 µM after incubation in plasma obtained from different species […]
Assessment of plasma protein binding was measured by equilibrium dialysis by incubating plasma with the compound of interest at a concentration of 5 µM for 6 h at 37 °C followed by LC/MS-based determination of final compound concentrations.
PAMPA (Parallel artificial membrane permeability assay). […]
temperature in a wet chamber, the optical density of the solution in the receiver well was measured between 250 and 500 nm in intervals of 10 nm. The percent flux was calculated from […]
Background: In PAMPA a lipid-coated filter parts donor from acceptor wells.

This note sets out measurements from PMC6886544.

In general, inhibition refers to the percentage by which the read-out fell short of the control.

EPHA1, sequence (P21709 26-976): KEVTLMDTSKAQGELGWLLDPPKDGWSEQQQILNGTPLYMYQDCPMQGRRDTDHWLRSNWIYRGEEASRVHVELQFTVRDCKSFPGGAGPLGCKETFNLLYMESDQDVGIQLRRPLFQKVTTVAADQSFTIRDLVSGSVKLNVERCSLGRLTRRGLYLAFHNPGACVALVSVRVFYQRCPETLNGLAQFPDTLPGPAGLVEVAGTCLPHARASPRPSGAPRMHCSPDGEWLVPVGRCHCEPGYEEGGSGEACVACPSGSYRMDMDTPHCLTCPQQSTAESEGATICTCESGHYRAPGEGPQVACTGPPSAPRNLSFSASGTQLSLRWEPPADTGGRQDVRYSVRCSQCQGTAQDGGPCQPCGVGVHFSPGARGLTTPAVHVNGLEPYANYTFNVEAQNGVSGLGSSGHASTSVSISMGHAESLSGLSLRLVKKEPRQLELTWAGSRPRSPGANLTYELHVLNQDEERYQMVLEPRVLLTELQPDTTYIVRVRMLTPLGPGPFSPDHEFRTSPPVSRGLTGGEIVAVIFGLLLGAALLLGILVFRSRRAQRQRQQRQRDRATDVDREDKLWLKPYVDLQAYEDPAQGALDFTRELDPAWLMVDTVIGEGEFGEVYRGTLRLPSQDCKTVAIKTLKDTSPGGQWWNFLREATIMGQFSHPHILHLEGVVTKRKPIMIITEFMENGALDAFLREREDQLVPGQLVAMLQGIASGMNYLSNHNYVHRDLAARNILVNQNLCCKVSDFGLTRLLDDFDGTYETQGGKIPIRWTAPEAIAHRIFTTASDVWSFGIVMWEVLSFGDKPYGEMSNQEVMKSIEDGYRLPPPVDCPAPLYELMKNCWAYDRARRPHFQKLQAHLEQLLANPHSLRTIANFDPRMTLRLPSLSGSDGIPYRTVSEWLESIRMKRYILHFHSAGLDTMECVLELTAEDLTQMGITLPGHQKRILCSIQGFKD

As for `C=CC(=O)Nc1cccc(-c2c(-c3ccc(CN4CCN(C)CC4)cc3)[nH]c3ncnc(OC)c23)c1` [Compound 17a], the values for the inhibition at 1 µM in data set [1] and in data set [2] were 72 ± 2% and 70 ± 2%, respectively.
`C=CC(=O)Nc1cccc(-c2c(-c3ccc(N4CCN(C)CC4)cc3)[nH]c3ncnc(OCC(C)C)c23)c1` [Compound 19h] showed a PAMPA flux in data set [3] of 88%.
